Test results from patent publication US8426340B2, “Plant growth enhancement with combinations of PESA and plant growth regulators” (Valent BioSciences Corporation, priority 2009, dated 2013).
Counter-ions that a name gives are not always drawn.

Key:
Type in all cases: in vivo
rice cv. Cheniere = experiment: Pouch assay, root length of rice seedlings; conditions: for effect on main root length of rice cv. Cheniere / effect on root length of rice seedlings: pouch solution; for effect on main root length of rice cv. Cheniere: combination: 3, 10, or 30 mg/liter PESA with 1 or 10 mg/liter trinexapac-ethyl
Experimental: (§1) Seeds were placed in germination pouches consisting of germination paper hydrated with sterile water that was an insert in a gas-permeable 16×14 cm plastic pouch (CYG Pouch; Mega International, St. Paul, Minn.). In these examples, in pouch solution evaluation, PESA sodium salt or other active ingredients were added to the sterile water in the pouch. The pouches were arranged in a completely randomized block design in growth racks and placed in 19-liter polycarbonate food storage containers (Rubbermaid Commercial Products, Winchester, Va.). The sealed containers were held in an upright growth cabinet maintained at 25° C. with a 12 hour light: 12 hour dark photoperiod. When Abscisic acid was assayed in pouch studies, the pouches were first filled with sterile water to promote germination. The sterile water solutions were replaced after germination (4 days) and replaced with solutions containing ABA. After 6 days, the containers were removed from the growth cabinet, and the lengths of the roots and shoot were measured.
In pouch solution evaluation, treatment with the gibberellin biosynthesis inhibitor trinexapac-ethyl on […].

cotton [1] = experiment: Pouch assay, root length of cotton seedlings (6BA); conditions: for root length (cm) of cotton: 6BA 0 mg/liter
Experimental: as §1

lettuce [2] = experiment: Lettuce seed treatment, germination under thermodormancy conditions; conditions: 33° C. and continuous light
Experimental: (§2) Seed was sieved with a screen of mesh size appropriate to remove broken seeds and small trash. Cracked or otherwise damaged seeds were removed. The seed was well mixed, and 50 g samples were weighed into small plastic trays. Seed treatment slurries were made by adding measured amounts of PESA or its salts and other AIs to sufficient water to bring them up to a standard volume, typically 2 ml. A fungicide (Maxim XL; Syngenta Agricultural Products, Greensboro, N.C.), a polymeric binder (CF-Clear; Becker-Underwood, Ames, Iowa), and a colorant (Color Coat Red; Becker-Underwood, Ames, Iowa) were also included in the slurry at label rates. A small aliquot of this slurry was applied to the seed using a Hege 11 coater (Wintersteiger, Salt Lake City, Utah) with a six-inch bowl at a slurry rate of 30 ounces per 100 lbs of seed. The slurry was deposited drop-wise on the spinning disk atomizer using a syringe.
(§3) After treatment, each seed sample was placed in plastic trays and dried at a room temperature for 20 to 60 minutes. The samples were then placed in small plastic bags. […]
To test the effect of chemical application on thermodormancy, lettuce seed was treated with PESA salt (50 g/cwt), 6BA (1 g/cwt), or a combination of PESA salt and 6BA. Lettuce seed was then grown under conditions that promote thermodormancy (33° C. and continuous light) and final seedling germination was determined (Table 1).

cotton [3] = experiment: Pouch assay, root length of cotton seedlings (ABA)
Experimental: as §1

lettuce [4] = experiment: Lettuce seed treatment, root growth; conditions: 25° C. in darkness, 3 days
Experimental: as §2, §3
To test the effect of chemical application on root growth, lettuce seed was treated with PESA salt (50 g/cwt), 6BA (1 g/cwt), or a combination of PESA salt and 6BA. Treated lettuce seed was grown at 25° C. in darkness, and root lengths were determined after 3 days.

[5] = ACC alone 1, 10, or 100 mg/liter, combination: 3, 10, or 30 mg/liter PESA with 1, 10, or 100 mg/liter ACC, except 10 mg/liter PESA with 1 mg/liter ACC
[6] = PESA salt 50 g/cwt, 6BA 1 g/cwt, alone or in combination
[7] = seed treatment 50 g/cwt PESA salt, 0 g/cwt 6BA

**Q.** Which results are given for `CCOC(=O)C1CC(=O)C(=C(O)C2CC2)C(=O)C1` (centres unmarked) [trinexapac-ethyl, reference compound]?
**A.** root length (cm) of rice cv. Cheniere (rice cv. Cheniere; Table 3, PESA salt 0 mg/liter, trinexapac-ethyl 1 mg/liter): 10.9 cm; root length (cm) of rice cv. Cheniere (rice cv. Cheniere; Table 3, PESA salt 0 mg/liter, trinexapac-ethyl 10 mg/liter): 9.9 cm; root length (cm) of rice cv. Cheniere (rice cv. Cheniere; Table 3, PESA salt 0 mg/liter, trinexapac-ethyl 100 mg/liter): 5.0 cm; effect on main root length of rice cv. Cheniere (rice cv. Cheniere): negative effect on main root length

**Q.** Which results are given for `NC1(C(=O)O)CC1` [ACC, 1-aminocyclopropane carboxylic acid, reference compound]?
**A.** root length (cm) of rice cv. Cheniere (rice cv. Cheniere; Table 4, PESA salt 0 mg/liter, ACC 1 mg/liter): 8.8 cm; root length (cm) of rice cv. Cheniere (rice cv. Cheniere; Table 4, PESA salt 0 mg/liter, ACC 10 mg/liter): 7.8 cm; root length (cm) of rice cv. Cheniere (rice cv. Cheniere; Table 4, PESA salt 0 mg/liter, ACC 100 mg/liter): 4.3 cm; effect on root length of rice seedlings (rice cv. Cheniere; [5]): reduced root length

**Q.** With `O=C(O)CCC(=O)NCCc1ccccc1` [PESA salt, N-(2-phenylethyl)succinamic acid] as the molecule, how does the “root length (cm) of rice cv. Cheniere” value (rice cv. Cheniere; Table 3, PESA salt 3 mg/liter, trinexapac-ethyl 0 mg/liter) read?
**A.** 12.1 cm

**Q.** And the “root length (cm) of rice cv. Cheniere” value (rice cv. Cheniere; Table 3, PESA salt 10 mg/liter, trinexapac-ethyl 0 mg/liter)?
**A.** 12.5 cm

**Q.** What about the “root length (cm) of rice cv. Cheniere” value (rice cv. Cheniere; Table 3, PESA salt 30 mg/liter, trinexapac-ethyl 0 mg/liter) of the same molecule?
**A.** 13.1 cm

**Q.** What about the “root length (cm) of rice cv. Cheniere” value (rice cv. Cheniere; Table 4, PESA salt 3 mg/liter, ACC 0 mg/liter) of the same molecule?
**A.** 9.7 cm

**Q.** What about the “root length (cm) of rice cv. Cheniere” value (rice cv. Cheniere; Table 4, PESA salt 10 mg/liter, ACC 0 mg/liter) of the same molecule?
**A.** 9.8 cm

**Q.** And the “root length (cm) of rice cv. Cheniere” value (rice cv. Cheniere; Table 4, PESA salt 30 mg/liter, ACC 0 mg/liter)?
**A.** 9.4 cm

**Q.** What about the “root length (cm) of rice cv. Cheniere” value (rice cv. Cheniere; Table 5, PESA salt 3 mg/liter, AVG 0 mg/liter) of the same molecule?
**A.** 11.4 cm

**Q.** And the “root length (cm) of rice cv. Cheniere” value (rice cv. Cheniere; Table 5, PESA salt 30 mg/liter, AVG 0 mg/liter)?
**A.** 12.3 cm

**Q.** What about the “effect on root length of rice seedlings” value (rice cv. Cheniere; [5]) of the same molecule?
**A.** increased root length

**Q.** And the “effect on root length of rice seedlings” value (rice cv. Cheniere; PESA salt alone (AVG experiment))?
**A.** increased root length

**Q.** And the “effect on main root length of rice cv. Cheniere” value (rice cv. Cheniere)?
**A.** increased root length in a dose-dependent manner

**Q.** And the “root length (cm) of cotton” value (cotton [1]; PESA salt 3 mg/liter)?
**A.** 9.8 cm

**Q.** And the “root length (cm) of cotton” value (cotton [1]; PESA salt 10 mg/liter)?
**A.** 11.9 cm

**Q.** And the “root length (cm) of cotton” value (cotton [1]; PESA salt 30 mg/liter)?
**A.** 13.0 cm

**Q.** And the “effect on main root length of cotton seedlings” value (cotton [1]; pouch solution, combination: 10 or 30 mg/liter PESA with 1 or 10 mg/liter 6BA)?
**A.** increased root length in a dose-dependent manner

**Q.** What about the “effect on lettuce germination” value (lettuce [2]; [6]) of the same molecule?
**A.** no effect

**Q.** What about the “Germination (%)” value (lettuce [2]; [7]) of the same molecule?
**A.** 14.9%

**Q.** What about the “root length (cm) of cotton” value (cotton [3]; PESA salt 3 mg/liter, ABA 0 mg/liter) of the same molecule?
**A.** 11.9 cm

**Q.** What about the “root length (cm) of cotton” value (cotton [3]; PESA salt 10 mg/liter, ABA 0 mg/liter) of the same molecule?
**A.** 11.1 cm

**Q.** What about the “effect on lettuce root growth” value (lettuce [4]; [6]) of the same molecule?
**A.** no effect on lettuce root growth

**Q.** What about the “Root length (cm)” value (lettuce [4]; [7]) of the same molecule?
**A.** 3.8 cm

**Q.** Which “root length (cm) of cotton” value (cotton [3]; PESA salt 0 mg/liter, ABA 1 mg/liter) does the source give for `CC1=CC(=O)CC(C)(C)[C@@]1(O)/C=C/C(C)=C\C(=O)O` [ABA, abscisic acid] here?
**A.** 10.4 cm

**Q.** And the “root length (cm) of cotton” value (cotton [3]; PESA salt 0 mg/liter, ABA 10 mg/liter)?
**A.** 10.0 cm

**Q.** What about the “effect on root growth of cotton seedlings” value (cotton [3]; pouch solution, combination: PESA 3 or 10 mg/liter with ABA) of the same molecule?
**A.** inhibited root growth
